Patent publication US7928140B2, “Benzothiazole PI3 kinase modulators for cancer treatment” (Amgen Inc., priority 2007, dated 2011)

Key:
PI3K α = target: T1, PI3K α (Homo sapiens, UniProt P42336); assay: In vitro PI3 kinase enzyme assay (alpha), ATP loss, bioluminescence; type: biochemical; settings: read-out: PI3Kα ATP loss IC50;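 also: purified p110α/p85 heterodimer acting on PtdIns(4,5)P2 at room temperature, remaining ATP read by luminescence, inhibition scaled between compound-free wells with and without enzyme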
T1 construct: Full length p110 subunits of PI3K α, β and δ, N-terminally labeled with polyHis tag; polyHis (N); made in house; host or cells: Sf9 insect cells (baculovirus)
T1 sequence (P42336 whole entry, species assumed): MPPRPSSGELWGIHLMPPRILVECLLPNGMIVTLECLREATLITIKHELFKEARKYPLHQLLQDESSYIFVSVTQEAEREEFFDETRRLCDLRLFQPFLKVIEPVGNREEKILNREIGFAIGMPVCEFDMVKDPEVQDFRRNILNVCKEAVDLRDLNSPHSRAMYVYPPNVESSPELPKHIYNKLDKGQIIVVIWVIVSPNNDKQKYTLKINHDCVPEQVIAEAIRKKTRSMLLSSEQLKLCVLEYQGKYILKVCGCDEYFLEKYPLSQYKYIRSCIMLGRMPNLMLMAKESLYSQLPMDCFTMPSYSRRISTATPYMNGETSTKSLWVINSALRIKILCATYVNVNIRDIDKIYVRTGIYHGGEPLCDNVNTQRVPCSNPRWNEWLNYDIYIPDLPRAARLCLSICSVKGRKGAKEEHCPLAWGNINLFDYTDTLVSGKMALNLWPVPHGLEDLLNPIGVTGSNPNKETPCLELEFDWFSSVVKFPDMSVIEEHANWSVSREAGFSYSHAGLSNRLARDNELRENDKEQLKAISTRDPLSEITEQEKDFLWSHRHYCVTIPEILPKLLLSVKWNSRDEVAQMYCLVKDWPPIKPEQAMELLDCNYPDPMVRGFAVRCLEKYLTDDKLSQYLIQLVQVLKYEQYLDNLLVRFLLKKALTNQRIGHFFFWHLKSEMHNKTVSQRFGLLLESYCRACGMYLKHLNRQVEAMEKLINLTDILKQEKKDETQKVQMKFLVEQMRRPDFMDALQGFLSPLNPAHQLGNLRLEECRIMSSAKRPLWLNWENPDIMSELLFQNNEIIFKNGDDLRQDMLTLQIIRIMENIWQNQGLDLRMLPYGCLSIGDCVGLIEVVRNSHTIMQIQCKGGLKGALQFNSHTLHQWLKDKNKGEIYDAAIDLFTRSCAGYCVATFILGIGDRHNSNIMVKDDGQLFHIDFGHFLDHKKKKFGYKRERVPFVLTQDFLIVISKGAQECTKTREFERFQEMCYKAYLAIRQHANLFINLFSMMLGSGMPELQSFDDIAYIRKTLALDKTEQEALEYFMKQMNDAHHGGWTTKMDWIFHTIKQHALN
T1 sequence (P27986 whole entry partner, species assumed): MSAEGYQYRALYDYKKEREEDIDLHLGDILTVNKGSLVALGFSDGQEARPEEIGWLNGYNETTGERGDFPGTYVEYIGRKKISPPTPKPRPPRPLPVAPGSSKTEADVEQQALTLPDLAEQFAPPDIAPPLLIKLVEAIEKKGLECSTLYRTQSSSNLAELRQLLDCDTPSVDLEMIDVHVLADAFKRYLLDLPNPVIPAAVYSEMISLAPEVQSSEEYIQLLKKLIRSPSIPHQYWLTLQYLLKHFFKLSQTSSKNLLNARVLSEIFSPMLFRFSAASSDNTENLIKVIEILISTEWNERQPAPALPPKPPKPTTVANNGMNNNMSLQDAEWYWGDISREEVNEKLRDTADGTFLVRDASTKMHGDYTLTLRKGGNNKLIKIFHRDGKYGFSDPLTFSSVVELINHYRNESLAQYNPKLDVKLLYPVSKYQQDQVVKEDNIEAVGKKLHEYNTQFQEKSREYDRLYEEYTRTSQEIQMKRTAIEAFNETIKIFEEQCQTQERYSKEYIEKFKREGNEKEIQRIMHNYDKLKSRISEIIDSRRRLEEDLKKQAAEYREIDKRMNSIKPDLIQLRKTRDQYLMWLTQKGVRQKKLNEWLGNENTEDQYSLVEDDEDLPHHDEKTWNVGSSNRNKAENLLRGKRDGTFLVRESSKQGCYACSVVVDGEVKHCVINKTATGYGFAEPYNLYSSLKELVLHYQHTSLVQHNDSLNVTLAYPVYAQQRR
Description: Full length p110 subunits of PI3K α, β and δ, N-terminally labeled with polyHis tag, were co-expressed with p85 in baculovirus expression vectors in sf9 insect cells. P110/p85 heterodimers were purified by sequential Ni-NTA, Q-HP, and Superdex-100 chromatography. Purified α, β and δ isozymes were stored at −20° C. in 20 mM Tris, pH 8, 0.2M NaCl, 50% glycerol, 5 mM DTT, 2 mM Na cholate.
PI3K enzyme assays (alpha, beta, delta and gamma) were performed in 25 mL with the above final concentrations of components in white polypropylene plates (Costar catalogue #3355). Phosphatidyl inositol phosphoacceptor, PtdIns(4,5)P2 (eg. P4508) was obtained from Echelon Biosciences. The ATPase activity of the alpha and gamma isozymes was not greatly stimulated by PtdIns(4,5)P2 under these conditions and was therefore omitted from the assay of these isozymes. Test compounds were dissolved in DMSO and diluted with three-fold serial dilutions. The compound in DMSO (1 μL) was added per test well, and the inhibition relative to reactions containing no compound, with and without enzyme was determined. After assay incubation at RT, the reaction was stopped and residual ATP determined by addition of an equal volume of a commercial ATP bioluminescence kit (Perkin Elmer EasyLite) according to the manufacturer's instructions, and detected using an Analyst GT luminometer.

PI3K β = target: T2, PI3K β (Homo sapiens, UniProt P42338); assay: In vitro PI3 kinase enzyme assay (beta), ATP loss, bioluminescence; type: biochemical; settings: read-out: PI3Kβ ATP loss IC50;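 also: purified p110β/p85 heterodimer with PtdIns(4,5)P2 as acceptor, incubated at room temperature, leftover ATP read by luminescence, inhibition scaled to compound-free wells with and without enzyme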
T2 construct: Full length p110 subunits of PI3K α, β and δ, N-terminally labeled with polyHis tag; polyHis (N); made in house; host or cells: Sf9 insect cells (baculovirus)
T2 sequence (P42338 whole entry): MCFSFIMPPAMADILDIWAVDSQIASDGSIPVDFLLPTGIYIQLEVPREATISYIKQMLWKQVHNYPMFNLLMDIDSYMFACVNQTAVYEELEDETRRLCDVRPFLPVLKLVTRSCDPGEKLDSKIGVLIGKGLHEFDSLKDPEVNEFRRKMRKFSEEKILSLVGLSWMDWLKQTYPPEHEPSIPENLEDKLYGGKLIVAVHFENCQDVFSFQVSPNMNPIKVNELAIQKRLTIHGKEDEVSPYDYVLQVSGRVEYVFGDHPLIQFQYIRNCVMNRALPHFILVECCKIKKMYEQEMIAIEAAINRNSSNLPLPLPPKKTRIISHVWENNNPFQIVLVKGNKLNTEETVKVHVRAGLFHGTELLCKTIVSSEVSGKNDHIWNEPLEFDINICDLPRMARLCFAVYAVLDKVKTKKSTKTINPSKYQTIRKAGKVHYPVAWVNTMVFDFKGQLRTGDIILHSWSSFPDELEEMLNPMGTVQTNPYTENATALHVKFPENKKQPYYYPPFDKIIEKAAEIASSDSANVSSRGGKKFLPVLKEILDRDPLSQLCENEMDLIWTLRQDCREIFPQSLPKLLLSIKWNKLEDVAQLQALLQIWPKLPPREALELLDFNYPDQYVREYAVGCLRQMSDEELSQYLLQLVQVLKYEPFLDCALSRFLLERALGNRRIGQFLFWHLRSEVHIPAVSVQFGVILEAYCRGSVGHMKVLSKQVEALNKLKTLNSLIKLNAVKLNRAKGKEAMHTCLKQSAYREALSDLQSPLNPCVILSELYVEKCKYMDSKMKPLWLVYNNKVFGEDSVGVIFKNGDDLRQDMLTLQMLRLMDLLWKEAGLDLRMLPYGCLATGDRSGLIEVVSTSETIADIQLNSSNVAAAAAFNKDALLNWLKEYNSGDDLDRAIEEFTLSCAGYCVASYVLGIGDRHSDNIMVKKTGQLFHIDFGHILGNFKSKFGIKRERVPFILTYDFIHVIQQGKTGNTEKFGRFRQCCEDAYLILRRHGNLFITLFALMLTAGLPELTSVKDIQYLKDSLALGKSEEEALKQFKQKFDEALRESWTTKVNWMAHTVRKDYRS
T2 sequence (P27986 whole entry partner): as the sequence (P27986 whole entry partner, species assumed) above

[1] = tested on: phosphorylation of Serine 473 in Akt, HCT 116 human colon carcinoma cells; assay: Cell-based phospho-AKT Ser473 assay (MSD sandwich immunoassay, IGF-1 stimulated); settings: Homo sapiens, HCT-116, HCT 116 cells; read-out: HCT 116 pAKT IC50
Description: This assay determines the ability of test compounds to inhibit the phosphorylation of […] in Akt using a MSD based sandwich immunoassay (Meso Scale Detection, catalogue # N411CAB-1). […] Prior to the assay cells were detached from the culture flask with trypsin, and re-suspended in complete media to give a final concentration of 1.6×10^5 cells per ml. Aliquots (100 μl) of the HCT116 cell suspension were seeded into each well of a 96 well tissue culture plate (Corning Incorporated COSTAR, catalogue#3595) to give a final density of 16,000 cells per well. Cells were then incubated overnight at 37° C. The following day the cells were treated with serially diluted test compounds and incubated for 2 hours at 37° C. […] As a maximum response control, wells contained 0.5% DMSO in place of test compound. The plates were mixed at 700 rpm for 2 min to ensure even distribution of the test compound and incubated for 2 hours at 37° C. Cells were then stimulated with insulin-like growth factor 1 (Sigma, product #13769) at final concentration of 100 ng/ml for 15 minutes at 37° C. The media was then removed and the cells treated with 80 μl cell-lysis buffer (MSD) containing a cocktail of protease and phosphatase inhibitors for one hour at 4° C. […] The detection antibody was removed and plates were then washed four times with 200 μl per well of Tris wash buffer. An aliquot of 150 μl of diluted MSD read buffer was then applied to each well, and the electrochemiluminescent signal was measured using a MSD SECTORTM plate reader. This instrument measures the intensity of emitted light to determine a quantitative measure of phosphorylated Akt in each well. The dose-response data obtained with each compound were analyzed and the IC50 inhibition of Akt phosphorylation at Ser473 calculated.

| SMILES | IC50 (PI3K α) [nM] | IC50 (PI3K β) [nM] | IC50 [1] [nM] |
| --- | --- | --- | --- |
| CC(=O)Nc1nc2ccc(-c3ccnc(Sc4ccc(F)cc4)n3)cc2s1 [Example 26, N-(6-(2-((4-fluorophenyl)sulfanyl)-4-pyrimidinyl)-1,3-benzothiazol-2-yl)acetamide] | 122 | 407 | 1020 |
| COc1ccc(Sc2nccc(-c3ccc4nc(NC(C)=O)sc4c3)n2)c(C)c1 [Example 27, N-(6-(2-((4-methoxy-2-methylphenyl)sulfanyl)-4-pyrimidinyl)-1,3-benzothiazol-2-yl)acetamide] | 40 | 201 | 594 |
| CC(=O)Nc1nc2ccc(-c3ccnc(Sc4cccc(C)c4)n3)cc2s1 [Example 35, N-(6-(2-((3-methylphenyl)sulfanyl)-4-pyrimidinyl)-1,3-benzothiazol-2-yl)acetamide] | 57.6 | 1060 | 3580 |
| CC(=O)Nc1nc2ccc(-c3ccnc(Sc4ccc(C)cc4)n3)cc2s1 [Example 36, N-(6-(2-((4-methylphenyl)sulfanyl)-4-pyrimidinyl)-1,3-benzothiazol-2-yl)acetamide] | 59.5 | 554 | 2320 |
| CC(=O)Nc1nc2ccc(-c3ccnc(OCc4ccc5c(c4)OCO5)n3)cc2s1 [Example 40, N-(6-(2-(1,3-benzodioxol-5-ylmethoxy)-4-pyrimidinyl)-1,3-benzothiazol-2-yl)acetamide] | 83.4 | 25100 | 1050 |
| CC(=O)Nc1nc2ccc(-c3ccnc(OCC(C)(C)C)n3)cc2s1 [Example 42, N-(6-(2-(2,2-dimethylpropoxy)-4-pyrimidinyl)-1,3-benzothiazol-2-yl)acetamide] | 501 | 43000 | 6180 |
| CC(=O)Nc1nc2ccc(-c3ccnc(O[C@H](C)c4ccccc4)n3)cc2s1 [Example 43, N-(6-(2-((1R)-1-phenylethoxy)-4-pyrimidinyl)-1,3-benzothiazol-2-yl)acetamide] | 104 | 517 | 1060 |
| CC(=O)Nc1nc2ccc(-c3ccnc(OCCCc4ccncc4)n3)cc2s1 [Example 44, N-(6-(2-(3-(4-pyridinyl)propoxy)-4-pyrimidinyl)-1,3-benzothiazol-2-yl)acetamide] | 97.9 | 2730 | 577 |
| COCCNc1nccc(-c2ccc3nc(NC(C)=O)sc3c2)n1 [Example 47, N-(6-(2-((2-methoxyethyl)amino)-4-pyrimidinyl)-1,3-benzothiazol-2-yl)acetamide] | 696 | 18400 | 1150 |
| CC(=O)Nc1nc2ccc(-c3ccnc(NCc4ccccc4)n3)cc2s1 [Example 49, N-(6-(2-(benzylamino)-4-pyrimidinyl)-1,3-benzothiazol-2-yl)acetamide] | 418 | 1450 | 15300 |
| COc1nccc(-c2ccc3nc(NC(C)=O)sc3c2)n1 [Example 51, N-(6-(2-methoxy-4-pyrimidinyl)-1,3-benzothiazol-2-yl)acetamide] | 505 | > 40000 | 952 |
| CNC(=O)Nc1nc2ccc(-c3ccnc(OCc4ccccc4)n3)cc2s1 [Example 56, 1-(6-(2-(benzyloxy)-4-pyrimidinyl)-1,3-benzothiazol-2-yl)-3-methylurea] | 254 | 402 | > 5000 |
| COc1ccc(Sc2ncc(-c3ccc4nc(NC(C)=O)sc4c3)s2)cc1 [Example 62, N-(6-(2-(4-methoxyphenylthio)thiazol-5-yl)benzo[d]thiazol-2-yl)acetamide] | 29.9 | 5210 | 2580 |
| CC(=O)Nc1nc2ccc(-c3cccc(S(=O)(=O)c4ccc(F)cc4)n3)cc2s1 [Example 66, N-(6-(6-(4-Fluorophenylsulfonyl)pyridin-2-yl)benzo[d]thiazol-2-yl)acetamide] | 258 | 5610 | 2020 |
| COc1ccc(S(=O)(=O)c2cccc(-c3ccc4nc(NC(C)=O)sc4c3)n2)cc1 [Example 68, N-(6-(6-(4-Methoxyphenylsulfonyl)pyridin-2-yl)benzo[d]thiazol-2-yl)acetamide] | 86.5 | 676 | 664 |
| COc1cccc(S(=O)(=O)c2cccc(-c3ccc4nc(NC(C)=O)sc4c3)n2)c1 [Example 69, N-(6-(6-((3-methoxyphenyl)sulfonyl)-2-pyridinyl)-1,3-benzothiazol-2-yl)acetamide] | 46.5 | 284 | 296 |
| CC(=O)Nc1nc2ccc(-c3cccc(NS(=O)(=O)c4ccccc4F)n3)cc2s1 [Example 73, N-(6-(6-(2-Fluorophenylsulfonamido)pyridin-2-yl)benzo[d]thiazol-2-yl)acetamide] | 60.6 | 149 | 320 |
| CC(=O)Nc1nc2ccc(-c3cccc(N(C)S(=O)(=O)c4ccccc4)n3)cc2s1 [Example 75, N-(6-(6-(methyl(phenylsulfonyl)amino)-2-pyridinyl)-1,3-benzothiazol-2-yl)acetamide] | 82.5 | 338 | 221 |
| CC(=O)Nc1nc2ccc(-c3ccnc(NS(=O)(=O)c4ccccc4)n3)cc2s1 [Example 77, N-(6-(2-(Phenylsulfonamido)pyrimidin-4-yl)benzo[d]thiazol-2-yl)acetamide] | 84.8 | 543 | 2350 |
| CC(=O)Nc1nc2ccc(-c3ccnc(NS(=O)(=O)c4ccc(C)cc4)n3)cc2s1 [Example 83, N-(6-(2-(((4-methylphenyl)sulfonyl)amino)-4-pyrimidinyl)-1,3-benzothiazol-2-yl)acetamide] | 34.3 | 62 | 408 |
| CCc1ccc(S(=O)(=O)Nc2nccc(-c3ccc4nc(NC(C)=O)sc4c3)n2)cc1 [Example 84, N-(6-(2-(((4-ethylphenyl)sulfonyl)amino)-4-pyrimidinyl)-1,3-benzothiazol-2-yl)acetamide] | 21.8 | 79.3 | 174 |
| COc1cccc(S(=O)(=O)Nc2nccc(-c3ccc4nc(NC(C)=O)sc4c3)n2)c1 [Example 85, N-(6-(2-(((3-methoxyphenyl)sulfonyl)amino)-4-pyrimidinyl)-1,3-benzothiazol-2-yl)acetamide] | 20.1 | 82.6 | 917 |
| COc1ccc(S(=O)(=O)N(C)c2nccc(-c3ccc4nc(NC(C)=O)sc4c3)n2)cc1 [Example 88, N-(6-(2-(4-Methoxy-N-methylphenylsulfonamido)pyrimidin-4-yl)benzo[d]thiazol-2-yl)acetamide] | 39.3 | 79.1 | 68.8 |
| CC(=O)Nc1nc2ccc(-c3ccnc(N(C)S(=O)(=O)c4ccccc4)n3)cc2s1 [Example 91, N-(6-(2-(methyl(phenylsulfonyl)amino)-4-pyrimidinyl)-1,3-benzothiazol-2-yl)acetamide] | 181 | 237 | 310 |
| CC(=O)Nc1nc2ccc(-c3ccnc(N(C)S(=O)(=O)c4cccc(C)c4)n3)cc2s1 [Example 93, N-(6-(2-(N,3-Dimethylphenylsulfonamido)pyrimidin-4-yl)benzo[d]thiazol-2-yl)acetamide] | 102 | 174 | 218 |
| CC(=O)Nc1nc2ccc(-c3ccnc(OCc4ccc(C)cc4)n3)cc2s1 [Example 106, N-(6-(2-((4-methylbenzyl)oxy)-4-pyrimidinyl)-1,3-benzothiazol-2-yl)acetamide] | 220 | 1240 | 2530 |
| CC(=O)Nc1nc2ccc(-c3ccnc(OCc4cccc(C)c4)n3)cc2s1 [Example 107, N-(6-(2-((3-methylbenzyl)oxy)-4-pyrimidinyl)-1,3-benzothiazol-2-yl)acetamide] | 181 | 836 | 1210 |
| COc1cccc(COc2nccc(-c3ccc4nc(NC(C)=O)sc4c3)n2)c1 [Example 108, N-(6-(2-((3-methoxybenzyl)oxy)-4-pyrimidinyl)-1,3-benzothiazol-2-yl)acetamide] | 96.7 | 292 | 682 |
| CC(=O)Nc1nc2ccc(-c3cnc(C)c(NS(=O)(=O)c4ccccc4)c3)cc2s1 [Example 110, N-(6-(6-methyl-5-(phenylsulfonamido)pyridin-3-yl)benzo[d]thiazol-2-yl)acetamide] | 3.8 | 10.6 | 31.4 |
| CC(=O)Nc1nc2ccc(-c3cnc(C)c(NS(=O)(=O)c4ccc(F)cc4)c3)cc2s1 [Example 111, N-(6-(5-(((4-fluorophenyl)sulfonyl)amino)-6-methyl-3-pyridinyl)-1,3-benzothiazol-2-yl)acetamide] | 4.1 | 13.1 | 25.5 |
